# Assay results taken from US8436043B2 (Takeda Pharmaceutical Company Limited, priority 2008, dated 2013).
# Target: T1, human glucagon receptor (Homo sapiens, UniProt P47871)
# T1 construct: made in house; host or cells: FreeStyle CHO cells, transient transfection with pMSRαneo/hGCGR; membrane fraction (35,000 rpm pellet)
# Assay: Glucagon binding inhibitory activity ([125I]-glucagon binding to glucagon receptor membrane protein)
# Conditions: test compound 10 μM; 0.4% DMSO = 0%, non-labeled glucagon 1 μM = 100%; read-out: inhibitory rate (%) at 10 μM
# How it was run: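 Receptor source was a membrane fraction of transiently transfected CHO cells bearing human receptor; 90 min room-temperature binding, filtration harvest, scintillation counting.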
# T1 sequence (P47871 26-477): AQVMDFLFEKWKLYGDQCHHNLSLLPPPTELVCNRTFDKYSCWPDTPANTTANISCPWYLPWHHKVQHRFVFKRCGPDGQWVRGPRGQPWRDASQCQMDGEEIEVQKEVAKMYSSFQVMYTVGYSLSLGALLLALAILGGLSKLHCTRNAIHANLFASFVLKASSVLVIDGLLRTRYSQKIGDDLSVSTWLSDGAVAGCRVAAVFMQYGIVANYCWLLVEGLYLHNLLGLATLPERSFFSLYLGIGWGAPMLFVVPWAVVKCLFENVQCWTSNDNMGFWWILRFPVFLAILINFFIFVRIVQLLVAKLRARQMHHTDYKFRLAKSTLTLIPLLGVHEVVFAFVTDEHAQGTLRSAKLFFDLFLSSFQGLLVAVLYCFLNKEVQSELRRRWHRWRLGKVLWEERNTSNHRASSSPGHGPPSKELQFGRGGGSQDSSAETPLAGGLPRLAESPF
compound,measurement,value
"COc1ccc2oc(C(Nc3ccc(C(=O)N(C)CCC(=O)O)cc3)c3ccccc3)c(C)c2c1 (centres unmarked) [Example A114, 3-{[(4-{[(5-methoxy-3-methyl-1-benzofuran-2-yl)(phenyl)methyl]amino}phenyl)carbonyl](methyl)amino}-propanoic acid]",inhibition at 10 µM,70%
"CCNC(=O)Nc1ccc2oc(C(Nc3ccc(C(=O)N(C)CCC(=O)O)cc3)C3CCCCC3)c(C)c2c1 (centres unmarked) [Example A115, 3-[({4-[(cyclohexyl{5-[(ethylcarbamoyl)amino]-3-methyl-1-benzofuran-2-yl}methyl)amino]phenyl}carbonyl)(methyl)amino]propanoic acid]",inhibition at 10 µM,53%
"COc1ccc2nc(C(Nc3ccc(C(=O)NCCC(=O)O)cc3)C3CCCCC3)n(C)c2c1 (centres unmarked) [Example A116, 3-{[(4-{[cyclohexyl(6-methoxy-1-methyl-1H-benzimidazol-2-yl)methyl]amino}phenyl)carbonyl]amino}propanoic acid]",inhibition at 10 µM,58%
"CCCCCCC(Nc1ccc(C(=O)NCCC(=O)O)cc1)c1oc2ccc(OC)cc2c1C (centres unmarked) [Example A118, 3-{[(4-{[1-(5-methoxy-3-methyl-1-benzofuran-2-yl)heptyl]amino}phenyl)carbonyl]amino}propanoic acid]",inhibition at 10 µM,70%
"CCCCCCC(Nc1ccc(C(=O)N(C)CCC(=O)O)cc1)c1oc2ccc(OC)cc2c1C (centres unmarked) [Example A119, 3-{[(4-{[1-(5-methoxy-3-methyl-1-benzofuran-2-yl)heptyl]amino}phenyl)carbonyl](methyl)amino}propanoic acid]",inhibition at 10 µM,70%
"COc1ccc2oc(C(CCCCSC)Nc3ccc(C(=O)NCCC(=O)O)cc3)c(C)c2c1 (centres unmarked) [Example A120, 3-{[(4-{[1-(5-methoxy-3-methyl-1-benzofuran-2-yl)-5-(methylsulfanyl)pentyl]amino}phenyl)carbonyl]amino}propanoic acid]",inhibition at 10 µM,73%
"COc1ccc2oc(C(CCCCSC)Nc3ccc(C(=O)N(C)CCC(=O)O)cc3)c(C)c2c1 (centres unmarked) [Example A121, 3-{[(4-{[1-(5-methoxy-3-methyl-1-benzofuran-2-yl)-5-(methylsulfanyl)pentyl]amino}phenyl)carbonyl](methyl)amino}-propanoic acid]",inhibition at 10 µM,59%
"COCCCCC(Nc1ccc(C(=O)NCCC(=O)O)cc1)c1oc2ccc(OC)cc2c1C (centres unmarked) [Example A123, 3-{[(4-{[5-methoxy-1-(5-methoxy-3-methyl-1-benzofuran-2-yl)pentyl]amino}phenyl)carbonyl]amino}propanoic acid]",inhibition at 10 µM,71%
"COCCCCC(Nc1ccc(C(=O)N(C)CCC(=O)O)cc1)c1oc2ccc(OC)cc2c1C (centres unmarked) [Example A124, 3-{[(4-{[5-methoxy-1-(5-methoxy-3-methyl-1-benzofuran-2-yl)pentyl]amino}phenyl)carbonyl](methyl)amino}propanoic acid]",inhibition at 10 µM,51%
"Cc1c(C(Nc2ccc(C(=O)NCCC(=O)O)cc2)C2CCCCC2)oc2ccc(Br)nc12 (centres unmarked) [Example A125, 3-{[(4-{[(5-bromo-3-methylfuro[3,2-b]pyridin-2-yl)(cyclohexyl)methyl]amino}phenyl)carbonyl]amino}propanoic acid]",inhibition at 10 µM,69%
"Cc1c(C(Nc2ccc(C(=O)N(C)CCC(=O)O)cc2)C2CCCCC2)oc2ccc(Br)nc12 (centres unmarked) [Example A126, 3-{[(4-{[(5-bromo-3-methylfuro[3,2-b]pyridin-2-yl)(cyclohexyl)methyl]amino}phenyl)carbonyl](methyl)amino}-propanoic acid]",inhibition at 10 µM,68%
"Cc1c(C(Nc2ccc(C(=O)NCCC(=O)O)cc2)C2CCCCC2)oc2ccc(Cl)nc12 (centres unmarked) [Example A127, 3-{[(4-{[(5-chloro-3-methylfuro[3,2-b]pyridin-2-yl)(cyclohexyl)methyl]amino}phenyl)carbonyl]amino}propanoic acid]",inhibition at 10 µM,71%
"Cc1c(C(Nc2ccc(C(=O)N(C)CCC(=O)O)cc2)C2CCCCC2)oc2ccc(Cl)nc12 (centres unmarked) [Example A128, 3-{[(4-{[(5-chloro-3-methylfuro[3,2-b]pyridin-2-yl)(cyclohexyl)methyl]amino}phenyl)carbonyl](methyl)amino}-propanoic acid]",inhibition at 10 µM,83%
"Cc1c(C(Nc2ccc(C(=O)N(C)CCC(=O)O)cc2)C2CCCCC2)oc2ccc(NC(=O)c3ccccc3)cc12 (centres unmarked) [Example A129, 3-[({4-[(cyclohexyl{3-methyl-5-[(phenylcarbonyl)amino]-1-benzofuran-2-yl]methyl)amino}phenyl]carbonyl)(methyl)amino}propanoic acid]",inhibition at 10 µM,82%
"Cc1c(C(Nc2ccc(C(=O)N(C)CCC(=O)O)cc2)C2CCCCC2)oc2ccc(NS(=O)(=O)c3ccccc3)cc12 (centres unmarked) [Example A130, 3-[({4-[(cyclohexyl{3-methyl-5-[(phenylsulfonyl)amino]-1-benzofuran-2-yl}methyl)amino]phenyl}carbonyl)(methyl)amino]propanoic acid]",inhibition at 10 µM,76%
"Cc1c(C(Nc2ccc(C(=O)N(C)CCC(=O)O)cc2)C2CCCCC2)oc2ccc(NCc3ccccc3)cc12 (centres unmarked) [Example A131, 3-[{[4-({[5-(benzylamino)-3-methyl-1-benzofuran-2-yl](cyclohexyl)methyl}amino)phenyl]carbonyl}(methyl)amino]-propanoic acid]",inhibition at 10 µM,87%
"COCCOCc1c(C(Nc2ccc(C(=O)NCCC(=O)O)cc2)C2CCCCC2)oc2ccc(F)cc12 (centres unmarked) [Example A132, 3-[({4-[(cyclohexyl{5-fluoro-3-[(2-methoxyethoxy)methyl]-1-benzofuran-2-yl}methyl)amino]phenyl}carbonyl)amino]propanoic acid]",inhibition at 10 µM,83%
"COCCOCc1c(C(Nc2ccc(C(=O)N(C)CCC(=O)O)cc2)C2CCCCC2)oc2ccc(F)cc12 (centres unmarked) [Example A133, 3-[({4-[(cyclohexyl{5-fluoro-3-[(2-methoxyethoxy)methyl]-1-benzofuran-2-yl}methyl)amino]phenyl}carbonyl)(methyl)amino]propanoic acid]",inhibition at 10 µM,80%
"CCC(CC)C(Nc1ccc(C(=O)NCCC(=O)O)cc1)c1sc2ccccc2c1C (centres unmarked) [Example A134, 3-{[(4-{[2-ethyl-1-(3-methyl-1-benzothiophene-2-yl)butyl]amino}phenyl)carbonyl]amino}propanoic acid]",inhibition at 10 µM,82%
"CCC(CC)C(Nc1ccc(C(=O)N(C)CCC(=O)O)cc1)c1sc2ccccc2c1C (centres unmarked) [Example A135, 3-{[(4-{[2-ethyl-1-(3-methyl-1-benzothiophen-2-yl)butyl]amino}phenyl)carbonyl](methyl)amino}propanoic acid]",inhibition at 10 µM,76%
"Cc1c(C(Nc2ccc(C(=O)N(C)CCC(=O)O)cc2)C2CCCCC2)sc2cnccc12 (centres unmarked) [Example A136, 3-{[(4-{[cyclohexyl(3-methylthieno[2,3-c]pyridin-2-yl)methyl]amino}phenyl)carbonyl](methyl)amino}propanoic acid]",inhibition at 10 µM,62%
"Cc1c(C(Nc2ccc(C(=O)NCCC(=O)O)cc2)C2CCCCC2)sc2cnccc12 (centres unmarked) [Example A137, 3-{[(4-{[cyclohexyl(3-methylthieno[2,3-c]pyridin-2-yl)methyl]amino}phenyl)carbonyl]amino}propanoic acid]",inhibition at 10 µM,75%
"Cc1c(C(Nc2ccc(C(=O)NCCC(=O)O)cc2)C2CCCCC2)sc2ccncc12 (centres unmarked) [Example A138, 3-{[(4-{[cyclohexyl(3-methylthieno[3,2-c]pyridin-2-yl)methyl]amino}phenyl)carbonyl]amino}propanoic acid]",inhibition at 10 µM,85%
"Cc1c(C(Nc2ccc(C(=O)N(C)CCC(=O)O)cc2)C2CCCCC2)sc2ccncc12 (centres unmarked) [Example A139, 3-{[(4-{[cyclohexyl(3-methylthieno[3,2-c]pyridin-2-yl)methyl]amino}phenyl)carbonyl](methyl)amino}propanoic acid]",inhibition at 10 µM,76%
"CCCCCCC(Nc1ccc(C(=O)NCCC(=O)O)cc1)c1cc2cc(Cl)ccc2n1C (centres unmarked) [Example A140, 3-{[(4-{[1-(5-chloro-1-methyl-1H-indol-2-yl)heptyl]amino}phenyl)carbonyl]amino}propanoic acid]",inhibition at 10 µM,83%
"CCCCCCC(Nc1ccc(C(=O)N(C)CCC(=O)O)cc1)c1cc2cc(Cl)ccc2n1C (centres unmarked) [Example A141, 3-{[(4-{[1-(5-chloro-1-methyl-1H-indol-2-yl)heptyl]amino}phenyl)carbonyl](methyl)amino}propanoic acid]",inhibition at 10 µM,86%
"Cc1c(C(Nc2ccc(C(=O)NCCC(=O)O)cc2)C2CCCCC2)sc2ncccc12 (centres unmarked) [Example A142, 3-{[(4-{[cyclohexyl(3-methylthieno[2,3-b]pyridin-2-yl)methyl]amino}phenyl)carbonyl]amino}propanoic acid]",inhibition at 10 µM,87%
"Cc1c(C(Nc2ccc(C(=O)N(C)CCC(=O)O)cc2)C2CCCCC2)sc2ncccc12 (centres unmarked) [Example A143, 3-{[(4-{[cyclohexyl(3-methylthieno[2,3-b]pyridin-2-yl)methyl]amino}phenyl)carbonyl](methyl)amino}propanoic acid]",inhibition at 10 µM,75%
"Cc1c(C(Nc2ccc(C(=O)NCCC(=O)O)cc2)C2CCCCC2)sc2cccnc12 (centres unmarked) [Example A144, 3-{[(4-{[cyclohexyl(3-methylthieno[3,2-b]pyridin-2-yl)methyl]amino}phenyl)carbonyl]amino}propanoic acid]",inhibition at 10 µM,82%
"Cc1c(C(Nc2ccc(C(=O)N(C)CCC(=O)O)cc2)C2CCCCC2)sc2cccnc12 (centres unmarked) [Example A145, 3-{[(4-{[cyclohexyl(3-methylthieno[3,2-b]pyridin-2-yl)methyl]amino}phenyl)carbonyl](methyl)amino}propanoic acid]",inhibition at 10 µM,76%
"Cc1c(C(Nc2ccc(C(=O)N(C)CCC(=O)O)cc2)C2CCCCC2)sc2cc(C(F)(F)F)cnc12 (centres unmarked) [Example A146, 3-[{[4-({cyclohexyl[3-methyl-6-(trifluoromethyl)thieno[3,2-b]pyridin-2-yl]methyl}amino)phenyl]carbonyl}(methyl)amino]propanoic acid]",inhibition at 10 µM,77%
"CSCCOc1ccc2oc(C(Nc3ccc(C(=O)N(C)CCC(=O)O)cc3)C3CCCCC3)c(C)c2c1 (centres unmarked) [Example A147, 3-[({4-[(cyclohexyl{3-methyl-5-[2-(methylthio)ethoxy]-1-benzofuran-2-yl}methyl)amino]phenyl}carbonyl)(methyl)amino]propanoic acid]",inhibition at 10 µM,99%
